Experiments:
[1] = Water solubility; assay type: physicochemical
Protocol: Bortezomib (a boronic acid compound), in its solid state as a pure API existed in the form of highly water insoluble boroxine, a cyclic boronic acid anhydride. When placed in water, the boroxine dissociated to form equilibrium between itself and the monomeric bortezomib resulting in an apparent water solubility of about 0.5-1 mg/ml which was not sufficient for formulation purposes. In order to deal with such issues, the innovator company in their patent WO2002059130 application has described a stable formulation containing mannitol ester of bortezomib. The application '9130 also relates to a process of preparing such formulation by first dissolving the bortezomib in warm (temperature around 45±2° C.) TBA (tertiary butyl alcohol), then adding water and mannitol (1% bulking agent), followed by freeze drying. […] So, the FDA approved drug Bortezomib is now available as a mannitol boronic ester which in its reconstituted form consists of the mannitol ester in equilibrium with its hydrolysis product, the monomeric boronic acid. The drug substance exists in its cyclic anhydride from as a trimeric boroxine, as described below in FIG. 1.

[2] = boroxine placed in water, equilibrium with monomeric bortezomib; cited from earlier work

water solubility (soluble in volumes of water) [1]	water solubility (in words) [1]	Structure (SMILES)	apparent water solubility [2] [µg/mL]
around 5 volumes water	–	CC(C)C[C@H](NC(=O)[C@H](Cc1ccccc1)NC(=O)c1cnccn1)B1OC(C(O)CO)C(C(O)CO)O1 (stereo in doubt) [Compound B, bortezomib-mannitol ester]	–
–	poorly water soluble	CC(C)C[C@H](NC(=O)[C@H](Cc1ccccc1)NC(=O)c1cnccn1)B(O)O [Bortezomib, [(1R)-3-methyl-1-[[(2S)-1-oxo-3-phenyl-2-[(pyrazinylcarbonyl)amino]propyl]amino]butyl] boronic acid]	500 to 1000

From patent publication US10023611B2, “Process for the preparation of bortezomib mannitol ester” (Cipla Limited, priority 2013, dated 2018)
